Data as given in US20230392123A1, “[…]-ASSEMBLED PEPTIDE HYDROGELS […]” (KATHOLIEKE UNIVERSITEIT LEUVEN, priority 2020, published 2023).
Entries after “also recorded” stand apart in the source; their conditions may differ.

Test system: HepG2 cells
Test: Live/dead staining of HepG2 hydrogel spheroids in 384 well plate, high-content imaging
Assay type: cell-based
Details: 0.1% Triton X for 15 minutes, after 19 days of culture, toxic control
Description: High-throughput assays: HepG2 cells were cultured in 2D in DMEM (Invitrogen Cat #31885)+10% fetal bovine serum (FBS). Cells were detached at passage 12 by 0.05% trypsin and mixed (1×10^7 cells/ml) with Puramatrix™+10% Bovine Collagen I (Gibco, Ref: A10644-01, Auckland, NZ) and 1 ul of the mix was pipetted in each well of a 384 well plate (Greiner microplate, Ref: 787979) to form the HepG2 hydrogel spheroids (one hydrogel spheroid per well). Hydrogel spheroids were maintained in HepG2 medium and the medium change was handled automatically by a robotic platform (NextGenQBio) for 19 days. Live/dead staining (Invitrogen, Ref:3224) was performed on the cell in the spheroids according the manufacturer's instruction. Prior to live/dead staining, a group of the hydrogel spheroids were treated with 0.1% Triton X for 15 minutes as control. Nuclei was stained by Hoechst (1:1000 dilution) for 15 minutes. The plate was imaged by a high-content analysis system (Operetta, PerkinElmer®). […] This experiment highlights the potential of hydrogel spheroids to be used in a high-throughput set up specifically important for drug/compound screening and toxicity studies.

Substance: Triton X
- live (green)/dead (red) staining of HepG2 cells in hydrogel spheroids: minimal or no green colour; also recorded: cell death
